Data as given in PMC12177571, “Glycosidase-activated prodrugs of a cytotoxic iron chelator for targeted cancer therapy” (RSC Medicinal Chemistry, 2025).

Tests used:
[1] = Stability in PBS without enzyme (HPLC control group); assay type: physicochemical; conditions: 100 μM in PBS, no enzyme, 37°C, up to 48 h
Method: Additional selectivity control experiments were conducted, in which either no enzyme or an “incorrect” enzyme such as an esterase was used (see Fig. S13–S24 in the ESI ^†).
(§1) The three following enzymes were employed in this study:
(§2) (1) esterase from porcine liver sourced from Sigma Aldrich as dry powder with an activity of 229.4 units/mg protein as indicated by the supplier for the received lot; (2) β-glucosidase from almonds sourced from Sigma Aldrich as dry powder with an activity of 11.7 U/mg as indicated by the supplier for the received lot
(§3) (3) β-galactosidase from e.coli overproducer sourced from Roche as prepared aqueous solution with an activity of 1500 units/mL protein as indicated by the supplier for the […]
(§4) As indicated for each experiment below, the respective enzyme was dissolved in PBS buffer and diluted as appropriate to produce the desired concentration.
25 mM stock solutions in DMSO were prepared for 2a, 2b, 3a, and 3b. From these stock solutions, 4 µL was added to 1 mL of PBS buffer, respectively, in separate glass vials, achieving a final concentration of 100 µM. […]
In the control group, no enzyme was introduced. […] Aliquots were extracted from each vial after 24 and 48 hours, respectively, and analyzed as described below.
The extracted aliquots were analyzed via high-performance liquid chromatography (HPLC) with ultraviolet (UV) detection at a wavelength of 254 nm. […]

[2] = target: T1, β-galactosidase (Escherichia coli, UniProt P00722); test: AIE fluorescence study of release of 1 with β-galactosidase; assay type: biochemical, e.coli; conditions: for Relative emission intensity at 480 nm: 20 μM in water; for Fluorescence emission / release of 1 (in words): water, three enzyme units of β-galactosidase, 0 h and 24 h
T1 construct: purchased Roche; host or cells: E. coli overproducer
Method: (§5) The AIE fluorescence properties of 1 were used as a means of supporting the above conclusion. The emission of all glycosylated prodrugs is suppressed. Thus, solutions of each prodrug were prepared in water, and three enzyme units of β-galactosidase or β-glucosidase, as appropriate, were added to the prodrugs. Each mixture was then analysed by fluorescence spectroscopy after 24 h of incubation. […] This finding is consistent with a lack of enzymatic activation.
Fig. 4 Relative emission intensity at 480 nm (*for 3b at 420 nm) of evaluated compounds at 20 μM before and after incubation with 3 U of the appropriate enzyme. TEXT PRINTED IN THE PICTURE: 1: Relative Emission 480 nm: 100% (Before incubation); Relative Emission 480 nm: 100% (After 24 h incubation) | 2a: Relative Emission 480 nm: 0% (Before incubation); Relative Emission 480 nm: 0% (After 24 h incubation) | 2b: Relative Emission 480 nm: 0% (Before incubation); Relative Emission 480 nm: 1% (After 24 h incubation) | 3a: Relative Emission 480 nm: 1% (Before incubation); Relative Emission 480 nm: 33% (After 24 h incubation) | 3b*: Relative Emission 480 nm: 1% (Before incubation); Relative Emission 480 nm: 11% (After 24 h incubation) […]
Figure S25: Fluorescence spectra for excitation (blue) and emission (green) of 1 at a concentration of 20 μM in water.
Figure S26: Fluorescence spectra for excitation (blue) and emission (green) of 2a at a concentration of 20 μM in water before (left) and after (right) incubation with 3 units of b-galactosidase for 24 h. […]
Figure S28: Fluorescence spectra for excitation (blue) and emission (green) of 3a at a concentration of 20 μM in water before (left) and after (right) incubation with 3 units of β-galactosidase for 24 h. […]

[3] = system: β-glucosidase; test: Enzymatic cleavage study (HPLC) with β-glucosidase; assay type: biochemical, almonds; conditions: for Release of 1 (HPLC): 100 μM prodrug in PBS, 2 units β-glucosidase, 37°C
Method: To test the desired, selective enzymatic cleavage and further evaluate compound stability, solutions of each prodrug were prepared in phosphate-buffered saline (PBS), and either β-galactosidase or β-glucosidase were added. After incubation times of 24 h and 48 h, samples from each mixture were analyzed by HPLC to gain insight into the relative amounts of both the remaining prodrug and the liberated 1.
Fig. 3 HPLC traces after 48 h of enzyme incubation for the prodrugs of this study as indicated at their respective peaks. The identity of the employed enzyme is indicated on the left of the chromatogram and the identity of each observed compound is shown above the respective peak. Chromatograms are shown with an offset of 2 along the ordinate to facilitate comparison.
as §1, §2, §3, §4
25 mM stock solutions in DMSO were prepared for 2a, 2b, 3a, and 3b. […]
[…] The vials were then assigned to one of three experimental groups: control, negative, and positive.
In the control group, no enzyme was introduced. […]
All vials were incubated in a 37°C water bath for 48 hours. Aliquots were extracted from each vial after 24 and 48 hours, respectively, and analyzed as described below.
The extracted aliquots were analyzed via high-performance liquid chromatography (HPLC) with ultraviolet (UV) detection at a wavelength of 254 nm. Chromatograms were plotted with an offset of 1 along the y-axis to allow clear intercomparison of the data across the […]

[4] = system: β-glucosidase; test: AIE fluorescence study of release of 1 with β-glucosidase; assay type: biochemical, almonds; conditions: for Relative emission intensity at 480 nm (for 3b at 420 nm): 20 μM in water; for Fluorescence emission / release of 1 (in words): water, three enzyme units of β-glucosidase, 0 h and 24 h
Method: as §5
Fig. 4 Relative emission intensity at 480 nm (*for 3b at 420 nm) of evaluated compounds at 20 μM before and after incubation with 3 U of the appropriate enzyme. TEXT PRINTED IN THE PICTURE: 1: Relative Emission 480 nm: 100% (Before incubation); Relative Emission 480 nm: 100% (After 24 h incubation) | 2a: Relative Emission 480 nm: 0% (Before incubation); Relative Emission 480 nm: 0% (After 24 h incubation) | 2b: Relative Emission 480 nm: 0% (Before incubation); Relative Emission 480 nm: 1% (After 24 h incubation) | 3a: Relative Emission 480 nm: 1% (Before incubation); Relative Emission 480 nm: 33% (After 24 h incubation) | 3b*: Relative Emission 480 nm: 1% (Before incubation); Relative Emission 480 nm: 11% (After 24 h incubation)
Figure S25: Fluorescence spectra for excitation (blue) and emission (green) of 1 at a concentration of 20 μM in water. […]
Figure S27: Fluorescence spectra for excitation (blue) and emission (green) of 2b at a concentration of 20 μM in water
before (left) and after (right) incubation with 3 units of b-glucosidase for 24 h. […]
Figure S29: Fluorescence spectra for excitation (blue) and emission (green) of 3b at a concentration of 20 μM in water
before (left) and after (right) incubation with 3 units of β-glucosidase for 24 h. […]

[5] = after 24 h incubation with 3 U β-galactosidase
[6] = before incubation with 3 U β-galactosidase
[7] = after 24 h incubation with 3 U β-glucosidase
[8] = before incubation with 3 U β-glucosidase

T1 sequence (P00722 2-1024): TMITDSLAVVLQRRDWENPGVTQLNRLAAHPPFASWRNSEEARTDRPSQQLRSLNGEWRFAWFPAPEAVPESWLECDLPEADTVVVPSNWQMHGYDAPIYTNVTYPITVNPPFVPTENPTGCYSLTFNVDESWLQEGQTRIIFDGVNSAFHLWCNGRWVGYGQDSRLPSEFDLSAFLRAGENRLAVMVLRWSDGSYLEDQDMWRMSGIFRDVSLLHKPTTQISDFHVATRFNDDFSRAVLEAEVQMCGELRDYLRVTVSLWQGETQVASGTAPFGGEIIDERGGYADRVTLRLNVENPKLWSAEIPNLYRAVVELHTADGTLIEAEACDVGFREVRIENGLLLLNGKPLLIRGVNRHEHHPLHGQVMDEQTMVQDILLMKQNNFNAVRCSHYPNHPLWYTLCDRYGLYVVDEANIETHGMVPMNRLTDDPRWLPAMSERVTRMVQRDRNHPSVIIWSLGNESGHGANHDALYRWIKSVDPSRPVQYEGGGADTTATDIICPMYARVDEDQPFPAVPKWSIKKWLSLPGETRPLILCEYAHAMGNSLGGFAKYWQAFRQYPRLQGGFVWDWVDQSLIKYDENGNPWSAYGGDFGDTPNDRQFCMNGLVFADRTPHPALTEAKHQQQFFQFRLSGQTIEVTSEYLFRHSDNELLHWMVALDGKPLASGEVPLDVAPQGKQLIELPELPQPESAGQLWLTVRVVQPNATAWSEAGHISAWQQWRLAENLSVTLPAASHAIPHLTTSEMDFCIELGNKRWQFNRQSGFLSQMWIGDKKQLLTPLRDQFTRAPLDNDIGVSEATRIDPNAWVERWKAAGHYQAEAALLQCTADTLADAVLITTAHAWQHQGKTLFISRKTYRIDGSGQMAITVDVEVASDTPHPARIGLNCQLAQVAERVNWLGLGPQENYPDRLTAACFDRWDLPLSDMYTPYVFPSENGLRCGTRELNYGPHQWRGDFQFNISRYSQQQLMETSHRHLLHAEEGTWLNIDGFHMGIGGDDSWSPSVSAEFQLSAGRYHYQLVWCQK

| Compound | Stability in PBS / aqueous media [1] | Relative emission intensity at 480 nm [2, 5] [%] | Relative emission intensity at 480 nm [2, 6] [%] | Fluorescence emission / release of 1 (in words) [2] | Release of 1 (HPLC) ([3]; 24 h) | Release of 1 (HPLC) ([3]; 48 h) | Relative emission intensity at 480 nm (for 3b at 420 nm) [4, 7] [%] | Relative emission intensity at 480 nm (for 3b at 420 nm) [4, 8] [%] | Fluorescence emission / release of 1 (in words) [4] | Cleavage of 1 from prodrug (HPLC of the fluorescence sample) ([3]; 20 μM in water, 3 enzyme units of β-glucosidase, 24 h) |
| --- | --- | --- | --- | --- | --- | --- | --- | --- | --- | --- |
| OC[C@H]1OC(Oc2ccccc2-c2nc(-c3ccccc3O)nn2-c2ccccc2)[C@H](O)[C@@H](O)[C@H]1O (stereo partly shown) [2a] | good stability in aqueous media | 0 | 0 | no fluorescence emission was observed |  |  |  |  |  |  |
| OC[C@H]1OC(Oc2ccccc2-c2nc(-c3ccccc3O)nn2-c2ccccc2)[C@H](O)[C@@H](O)[C@@H]1O (stereo partly shown) [2b] | good stability in aqueous media |  |  |  | no release of 1 was observed | no release of 1 was observed | 1 | 0 | no fluorescence emission was observed |  |
| OC[C@H]1OC(Oc2ccc(COc3ccccc3-c3nc(-c4ccccc4O)nn3-c3ccccc3)cc2)[C@H](O)[C@@H](O)[C@H]1O (stereo partly shown) [3a] |  | 33 | 1 | readily discernible release of 1 |  |  |  |  |  |  |
| OC[C@H]1OC(Oc2ccc(COc3ccccc3-c3nc(-c4ccccc4O)nn3-c3ccccc3)cc2)[C@H](O)[C@@H](O)[C@@H]1O (stereo partly shown) [3b] |  |  |  |  | significant release of 1 | further increased | 11 | 1 | less pronounced emission | successful cleavage |
